ChEMBL document CHEMBL1201862, “PubChem BioAssay data set” (2004)
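Dose response: 5 concentrations. Exposure: 48 h. Format: 96-well plates. Endpoint: linear interpolation; highest concentration if not reached. Here, GI50 denotes the concentration required for 50% inhibition of growth.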 The source made the active and inactive calls. No stated cut-off is given here; in the data, active = GI50 up to about 1.1 µM and inactive = higher. Residues, ends and D or L forms follow the SMILES beside them. Groups on a side chain read outwards from the residue. *: point of attachment. Cbz = O=C(OCc1ccccc1)*; Boc = CC(C)(C)OC(=O)*

Tests used:
Test in all cases: growth of human tumour cells (NCI), 48 h
[1] = test system: M14
[2] = test system: NCI-H226
[3] = test system: RPMI-8226
[4] = test system: KM12
[5] = test system: RXF 393
[6] = test system: SK-OV-3
[7] = test system: HCT-15
[8] = test system: UO-31
[9] = test system: SF-539
[10] = test system: NCI-H23
[11] = test system: NCI-H460
[12] = test system: SNB-75
[13] = test system: U-251
[14] = test system: HT-29
[15] = test system: CAKI-1
[16] = test system: UACC-62
[17] = test system: TK-10
[18] = test system: SN12C
[19] = test system: NCI/ADR-RES
[20] = test system: BT-549

SMILES | GI50 [1] | GI50 [2] | GI50 [3] | GI50 [4] | GI50 [5] | GI50 [6] | GI50 [7] [µM] | GI50 [8] | GI50 [9] | GI50 [10] | GI50 [11] | GI50 [12] | GI50 [13] | GI50 [14] | GI50 [15] | GI50 [16] | GI50 [17] | GI50 [18] | GI50 [19] | GI50 [20]
Cc1ccc(S(=O)(=O)c2ccccc2[N+](=O)[O-])cc1 | > 100 µM (inactive) | > 100 µM (inactive) | 80.7 µM (inactive) | > 100 µM (inactive) | 37.3 µM (inactive) | > 100 µM (inactive) | > 100 | 81.8 µM (inactive) | > 100 µM (inactive) | 55.2 µM (inactive) | > 100 µM (inactive) | > 100 µM (inactive) | > 100 µM (inactive) | > 100 µM (inactive) | 67.5 µM (inactive) | 37.4 µM (inactive) | > 100 µM (inactive) |  |  | 
O=C1CCCC/C1=C1\C(=O)Nc2cc(F)ccc21 | > 100 µM (inactive) | > 100 µM (inactive) | > 100 µM (inactive) | > 100 µM (inactive) | > 100 µM (inactive) | > 100 µM (inactive) | > 100 | > 100 µM (inactive) | > 100 µM (inactive) | > 100 µM (inactive) | > 100 µM (inactive) | > 100 µM (inactive) | > 100 µM (inactive) | > 100 µM (inactive) | > 100 µM (inactive) | > 100 µM (inactive) | > 100 µM (inactive) | > 100 µM (inactive) |  | 
O=C1C(Nc2ccc(S(=O)(=O)Nc3cnc4ccccc4n3)cc2)=C/C(=N\c2ccc(S(=O)(=O)Nc3cnc4ccccc4n3)cc2)c2ccccc21 | 18.5 µM (inactive) | 20.6 µM (inactive) | 27.9 µM (inactive) | 16.9 µM (inactive) | 17.7 µM (inactive) | 17.2 µM (inactive) | 18.4 | 15.6 µM (inactive) | 18.9 µM (inactive) | 18.7 µM (inactive) | 16.7 µM (inactive) | 14.6 µM (inactive) | 19.1 µM (inactive) | 20.4 µM (inactive) | 16.4 µM (inactive) | 18.2 µM (inactive) | 30.7 µM (inactive) | 16.7 µM (inactive) | 44.6 µM (inactive) | 
O=C(CC(=O)C1CCOC1=O)C(=O)Nc1ccc(Cl)cc1 (stereo not given) | > 100 µM (inactive) | > 100 µM (inactive) | > 100 µM (inactive) | > 100 µM (inactive) | > 100 µM (inactive) | > 100 µM (inactive) | > 100 | > 100 µM (inactive) | > 100 µM (inactive) | > 100 µM (inactive) | > 100 µM (inactive) | > 100 µM (inactive) | > 100 µM (inactive) | > 100 µM (inactive) | > 100 µM (inactive) | > 100 µM (inactive) | > 100 µM (inactive) | > 100 µM (inactive) |  | 
CN(C)CC/[N+]([O-])=C(/c1ccccc1)C12CC3CC(CC(C3)C1)C2 | 13.4 µM (inactive) | 12.5 µM (inactive) | 17.7 µM (inactive) | 18.3 µM (inactive) | 18.2 µM (inactive) | 17.1 µM (inactive) | 19.1 | 11.9 µM (inactive) | 16.5 µM (inactive) | 20.1 µM (inactive) | 18.4 µM (inactive) | 11.9 µM (inactive) | 16 µM (inactive) | 11 µM (inactive) | 17 µM (inactive) | 14 µM (inactive) | 16.7 µM (inactive) | 17.2 µM (inactive) |  | 
CCc1cc2c(oc3cc(C)ccc32)c(=O)n1C | > 10 µM (inactive) | > 10 µM (inactive) |  | > 10 µM (inactive) | > 10 µM (inactive) | > 10 µM (inactive) | > 10 | > 10 µM (inactive) | > 10 µM (inactive) | > 10 µM (inactive) | > 10 µM (inactive) | > 10 µM (inactive) | > 10 µM (inactive) | > 10 µM (inactive) |  |  | > 10 µM (inactive) | > 10 µM (inactive) |  | > 10 µM (inactive)
C/C(=N\NS(=O)(=O)c1ccccc1)c1ccc(Cl)c(Cl)c1 | 45.3 µM (inactive) | 62.8 µM (inactive) | 67.5 µM (inactive) | 71.1 µM (inactive) | 55.3 µM (inactive) | 67.3 µM (inactive) | 57 | 45.4 µM (inactive) | 43 µM (inactive) | 75.3 µM (inactive) | 46.1 µM (inactive) | 50 µM (inactive) | 37.2 µM (inactive) | 44.7 µM (inactive) | 75.2 µM (inactive) | 95.5 µM (inactive) | 50.1 µM (inactive) | 45.4 µM (inactive) |  | 
Cc1[nH]c2ccccc2c1C1Cc2ccccc2N1C(=O)/C=C/C=C/c1ccccc1 (stereo not given) | > 100 µM (inactive) | > 100 µM (inactive) | > 100 µM (inactive) | > 100 µM (inactive) | > 100 µM (inactive) | > 100 µM (inactive) | > 100 | > 100 µM (inactive) | > 100 µM (inactive) | > 100 µM (inactive) | > 100 µM (inactive) | > 100 µM (inactive) | > 100 µM (inactive) | > 100 µM (inactive) | > 100 µM (inactive) | > 100 µM (inactive) | > 100 µM (inactive) | > 100 µM (inactive) |  | 
COc1cc(OC)cc(Oc2nc3ccccc3nc2C(=O)O)c1 | > 100 µM (inactive) | > 100 µM (inactive) | > 100 µM (inactive) | > 100 µM (inactive) | > 100 µM (inactive) | > 100 µM (inactive) | > 100 | > 100 µM (inactive) |  | > 100 µM (inactive) | > 100 µM (inactive) | > 100 µM (inactive) | > 100 µM (inactive) | > 100 µM (inactive) | > 100 µM (inactive) | > 100 µM (inactive) | > 100 µM (inactive) |  | > 100 µM (inactive) | 
Cc1cc(N(CCC#N)CCC#N)ccc1/C=C(\NC(=O)/C=C/c1ccccc1)C(=O)N=[N+]=[N-] | > 100 µM (inactive) | > 100 µM (inactive) | > 100 µM (inactive) | 2.91 µM (inactive) | 34.8 µM (inactive) | 55 µM (inactive) | > 100 | > 100 µM (inactive) | 52.5 µM (inactive) | > 100 µM (inactive) | > 100 µM (inactive) | 23 µM (inactive) | 43.1 µM (inactive) | > 100 µM (inactive) | > 100 µM (inactive) | > 100 µM (inactive) | > 100 µM (inactive) | > 100 µM (inactive) |  | 
O=C1OC(O)C(Oc2ccc(Cl)cc2)=C1Cl (stereo not given) | > 100 µM (inactive) | > 100 µM (inactive) | > 100 µM (inactive) | > 100 µM (inactive) | > 100 µM (inactive) | > 100 µM (inactive) | > 100 | > 100 µM (inactive) | > 100 µM (inactive) | > 100 µM (inactive) | > 100 µM (inactive) | > 100 µM (inactive) | > 100 µM (inactive) | > 100 µM (inactive) | > 100 µM (inactive) | > 100 µM (inactive) | > 100 µM (inactive) | > 100 µM (inactive) |  | 
[O-][n+]1c(-c2ccccc2)c2nc3ccccc3nc2c2ccccc21 | > 100 µM (inactive) | > 100 µM (inactive) | > 100 µM (inactive) | > 100 µM (inactive) | > 100 µM (inactive) | > 100 µM (inactive) | > 100 | > 100 µM (inactive) | > 100 µM (inactive) | > 100 µM (inactive) | > 100 µM (inactive) | 31.1 µM (inactive) | > 100 µM (inactive) | > 100 µM (inactive) | > 100 µM (inactive) | > 100 µM (inactive) | > 100 µM (inactive) | > 100 µM (inactive) |  | 
CC(C)CC1C(=O)NCCC(NC(=O)C(N)Cc2ccc(O)cc2)C(=O)NC(Cc2ccccc2)C(=O)NC(Cc2ccccc2)NC1=O (stereo not given) | > 100 µM (inactive) | > 100 µM (inactive) | 78.2 µM (inactive) | > 100 µM (inactive) | > 100 µM (inactive) | > 100 µM (inactive) | > 100 | > 100 µM (inactive) | > 100 µM (inactive) | > 100 µM (inactive) | > 100 µM (inactive) | > 100 µM (inactive) | > 100 µM (inactive) | > 100 µM (inactive) | > 100 µM (inactive) | > 100 µM (inactive) | > 100 µM (inactive) | > 100 µM (inactive) | > 100 µM (inactive) | 
CC(C)(C)OC(=O)NC(CCCCNC(=O)CNC(=O)OCc1ccccc1)C(=O)NC(CCCCNC(=O)CNC(=O)OCc1ccccc1)C(=O)NC(CCCCNC(=O)CNC(=O)OCc1ccccc1)C(=O)NC(CCCCNC(=O)CNC(=O)OCc1ccccc1)C(=O)O (stereo not given) (Boc-K([Gly-Cbz])K([Gly-Cbz])K([Gly-Cbz])K([Gly-Cbz])-OH; configuration not given here) | > 100 µM (inactive) | > 100 µM (inactive) | > 100 µM (inactive) |  |  |  | > 100 | > 100 µM (inactive) |  | > 100 µM (inactive) | > 100 µM (inactive) | > 100 µM (inactive) | > 100 µM (inactive) | > 100 µM (inactive) | > 100 µM (inactive) | > 100 µM (inactive) | > 100 µM (inactive) | > 100 µM (inactive) |  | > 100 µM (inactive)
O=C1c2cccc(O)c2C(=O)c2c(O)cccc21 [DANTHRON] | 97.7 µM (inactive) | > 100 µM (inactive) | 50.7 µM (inactive) | > 100 µM (inactive) | 92.5 µM (inactive) | > 100 µM (inactive) | 74.8 | > 100 µM (inactive) | 53.6 µM (inactive) | > 100 µM (inactive) | 30.3 µM (inactive) | > 100 µM (inactive) | 69.3 µM (inactive) | 35.8 µM (inactive) | 33.7 µM (inactive) | 16 µM (inactive) | > 100 µM (inactive) | > 100 µM (inactive) |  | 
